The numbers were not newly measured in paper PMC4483627 (Marine Drugs, 2015), which cites them from elsewhere.

pIC50: −log10 of the molar value.

The target in this series is T1, rat nAChR α3β4 (Rattus norvegicus, UniProt P04757+P12392).
T1 construct: expressed in transfected cells; host or cells: Xenopus oocytes injected with cRNA
Particulars: cited from earlier work.

T1 sequence (P04757 26-499 limits assumed): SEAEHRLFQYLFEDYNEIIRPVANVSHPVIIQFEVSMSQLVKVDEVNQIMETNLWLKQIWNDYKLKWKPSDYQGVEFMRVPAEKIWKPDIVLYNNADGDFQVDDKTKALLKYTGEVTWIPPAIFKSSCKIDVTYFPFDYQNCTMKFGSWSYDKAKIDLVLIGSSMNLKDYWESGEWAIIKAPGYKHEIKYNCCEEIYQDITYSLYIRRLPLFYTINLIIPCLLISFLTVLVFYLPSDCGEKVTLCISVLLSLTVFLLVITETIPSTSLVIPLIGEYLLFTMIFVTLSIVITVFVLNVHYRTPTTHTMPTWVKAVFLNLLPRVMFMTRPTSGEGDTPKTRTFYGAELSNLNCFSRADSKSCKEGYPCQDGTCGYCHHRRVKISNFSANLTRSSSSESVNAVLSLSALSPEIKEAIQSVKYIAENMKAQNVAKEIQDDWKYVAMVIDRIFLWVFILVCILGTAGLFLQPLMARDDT
T1 sequence (P12392 21-495 limits assumed): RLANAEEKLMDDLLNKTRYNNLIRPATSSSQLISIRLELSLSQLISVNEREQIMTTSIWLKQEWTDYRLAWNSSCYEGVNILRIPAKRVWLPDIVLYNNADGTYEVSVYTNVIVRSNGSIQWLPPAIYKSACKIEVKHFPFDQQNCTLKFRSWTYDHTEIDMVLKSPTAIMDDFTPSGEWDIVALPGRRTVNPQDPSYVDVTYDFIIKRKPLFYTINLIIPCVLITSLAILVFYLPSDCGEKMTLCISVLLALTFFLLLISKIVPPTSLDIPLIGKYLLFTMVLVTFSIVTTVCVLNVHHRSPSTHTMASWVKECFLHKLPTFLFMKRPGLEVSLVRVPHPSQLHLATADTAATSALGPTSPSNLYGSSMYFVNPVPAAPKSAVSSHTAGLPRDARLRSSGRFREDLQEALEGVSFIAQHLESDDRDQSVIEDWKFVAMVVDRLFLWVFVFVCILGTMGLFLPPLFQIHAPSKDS

For orientation: pIC50 means the negative decadic logarithm of the IC50, by convention in mol/L. Turning to “G CC SHP V C SAMS P I- C * (bicyclic or more) [TxID]”, the pIC50 was 7.90.
